Test results reported in US20240166629A1, “HETEROCYCLIC COMPOUNDS CAPABLE OF ACTIVATING STING” (Boehringer Ingelheim International GmbH, priority 2022, published 2024).
Values belong to the molecule of their own block, whether it stands above or below them.

What was measured:
[1] = target: T1, human STING variant HAQ (Homo sapiens, UniProt Q86WV6, G230A/H232R/R293Q/R71H); experiment: THP1-Blue ISG IRF-inducible SEAP reporter assay, STING HAQ-variant; format: cell-based; conditions: THP1-Blue ISG cells expressing STING HAQ (parental or re-introduced); 24 hours incubation; SEAP OD 620 nm
T1 construct: expressed in transfected cells; host or cells: THP1-Blue ISG: either parental cells (endogenous HAQ) or hSTING KO clone retrovirally transduced with HAQ
From the text: (§1) Activation of the STING protein expressed in cell lines results in an increase of interferon production. By the stable integration of an interferon regulatory factor (IRF)-inducible SEAP gene (secreted embryonic alkaline phosphatase) reporter construct the functional interferon signaling pathway can be monitored. Using Invivogen's THP1-Blue™ ISG colorimetric enzyme assay and a suitable optical density (OD) reader the activity of SEAP can be detected and quantified. This technique could be used to characterize pharmacological modification of the STING pathway.
(§2) Several single nucleotide polymorphisms have been identified in the human STING gene. To determine the activity of the above described compounds, THP1-Blue™ ISG reporter cell lines expressing the different human STING variants have been generated. To do so, the endogenous human STING was first deleted using the CRISPR/CAS9 system: THP1-Blue ISG cells were electroporated with ALL-IN-ONE CRISPR plasmids targeting the STING gene (purchased from Sigma encoding the gRNA and GFP as a reporter gene for successful transduction). GFP positive cells then were sorted 24 h post transfection and expanded. Cells were then dispersed in semisolid methocel medium to allow single cell clone isolations. Clones were then screened for cGAMP responsiveness using the Quanti-Blue™ reporter assay. Non-responsive clones were subsequently analysed for STING loss by western blotting and sequencing of the STING locus.
(§3) For the overexpression of the human STING variants, a confirmed THP1-Blue™ ISG hSTING KO clone was transduced with individual retroviral plasmids (MSCV-ires-GFP-Blasti) encoding the allelic variants of hSTING (WT (H232R), HAQ, R232H, AQ and R293Q). Transduced cells were sorted for different levels of GFP fluorescence and STING allele expression was analysed by western blot.
(§4) Measurements of SEAP activity were performed in THP1-Blue™ ISG cells stably expressing the different human STING isoforms and the IRF-inducible SEAP reporter construct. Cells were cultivated in RPMI1640 medium with 10% fetal calf serum, 50 μg/ml Penicillin-Streptomycin, 100 μg/ml Zeocin, and 100 μg/ml Normocin in a 37°, 95% humidity and 5% CO2 incubator.
(§5) In preparation for the assay, the cells were distributed into the assay plates with a density of 10000 cells/15 μL per well. Compounds were prepared by an 8 point serial dilution in 50% aqueous DMSO and a final dilution step into medium to ensure a final DMSO concentration of 0.5% in the assay. 5 μL of diluted compounds were added to the plates, followed by a 24 hours incubation at 37° C.
(§6) At the day of the assay, 75 μl per well of Quanti-Blue™ reagent was added to all wells of the plate and the plate was incubated another 30 minutes at 37° C. The OD at 620 nm was measured on the EnVision reader (PerkinElmer).
Data of EC50 values on STING HAQ-variant can be found in table 2a. Shown data below were either derived from the parental THP1-Blue™ ISG cell lines (which express endogenously HAQ) or from genetically engineered THP1-Blue™ ISG cell lines in which first STING has been knocked-out and the HAQ specific STING isoform has been re-introduced as described above.

[2] = target: T2, human STING variant AQ (Homo sapiens, UniProt Q86WV6, G230A/H232R/R293Q); experiment: THP1-Blue ISG IRF-inducible SEAP reporter assay, STING AQ-variant; format: cell-based; conditions: THP1-Blue ISG hSTING KO cells expressing STING AQ; 24 hours incubation
T2 construct: expressed in transfected cells; host or cells: THP1-Blue ISG hSTING KO clone, retroviral MSCV-ires-GFP-Blasti
From the text: as §1, §2, §3, §4, §5, §6

[3] = target: T3, human STING variant R293Q (Homo sapiens, UniProt Q86WV6, H232R/R293Q); experiment: THP1-Blue ISG IRF-inducible SEAP reporter assay, STING R293Q-variant; format: cell-based; conditions: THP1-Blue ISG hSTING KO cells expressing STING R293Q; 24 hours incubation
T3 construct: expressed in transfected cells; host or cells: THP1-Blue ISG hSTING KO clone, retroviral MSCV-ires-GFP-Blasti
From the text: as §1, §2, §3, §4, §5, §6

[4] = target: T4, human STING variant H232R (WT) (Homo sapiens, UniProt Q86WV6, H232R); experiment: THP1-Blue ISG IRF-inducible SEAP reporter assay, STING H232R-variant; format: cell-based; conditions: THP1-Blue ISG hSTING KO cells expressing STING H232R; 24 hours incubation
T4 construct: expressed in transfected cells; host or cells: THP1-Blue ISG hSTING KO clone, retroviral MSCV-ires-GFP-Blasti
From the text: as §1, §2, §3, §4, §5, §6

[5] = target: T5, human STING variant R232H (Homo sapiens, UniProt Q86WV6); experiment: THP1-Blue ISG IRF-inducible SEAP reporter assay, STING R232H-variant; format: cell-based; conditions: THP1-Blue ISG hSTING KO cells expressing STING R232H; 24 hours incubation
T5 construct: expressed in transfected cells; host or cells: THP1-Blue ISG hSTING KO clone, retroviral MSCV-ires-GFP-Blasti
From the text: as §1, §2, §3, §4, §5, §6

[6] = in vitro; conditions: human, Caco-2, pH 7.4
Method: Caco-2 cells were obtained from Leibniz Institute DSMZ-German Collection of Microorganisms and Cell Cultures (Braunschweig, Germany) and cultured in DMEM (Dulbecco's modified Eagle medium) containing (in final concentrations) 10% FCS (fetal calf serum), 1% NEAA (non-essential amino acids), 2 mM Glutamin, 100 U/mL Penicillin and 100 μg/mL Streptomycin. Caco-2 cells were seeded either onto 24-well Transwell inserts (Corning, #3379) for bidirectional permeability assays at a density of 160,000 cells/cm^2 and cultured for 3 weeks, with media change on every second day.
For bidirectional permeability assays 10 mM DMSO stock solutions were diluted in transport buffer (final concentrations: 128.13 mM NaCl, 5.36 mM KCl, 1 mM MgSO4, 1.8 mM CaCl2, 4.17 mM NaHCO3, 1.19 mM Na2HPO4, 0.41 mM NaH2PO4, 15 mM 2-[4-(2-hydroxyethyl)piperazin-1-yl]ethanesulfonic acid (HEPES), 20 mM glucose, pH 7.4) containing 0.25% bovine serum albumin to a final concentration of 10 μM of the test compounds and added to the apical or basal compartment. Cells were incubated with the compounds for up to 2 h. Samples from the opposite compartment were taken at different timepoints.
Compound concentrations in the compartments were quantified using a RapidFire-based high-throughput HPLC/MS/MS system (high performance liquid chromatography/mass spectrometry; BioCius) that was customized to a fully automated and flexible platform, termed RIAS. In this modified setup, the sample was aspirated by a vacuum pump into a 10 μL sample loop for 250 ms and flushed onto a C4 cartridge (3.8 μL bed volume; BioCius) with the aqueous mobile phase (99.9% water, 0.09% formic acid, and 0.01% TFA; flow rate 1.5 mL/min). Prior to bioanalysis samples were spiked with internal standard solution and diluted with acetonitrile (ACN) for protein precipitation. Measurement was operated in multiplereaction monitoring (MRM) mode. Quantification was performed using external calibration. A solid-phase extraction step retained the analyte for 3000 ms while interfering matrix (e.g., buffer components) was removed. With a simple step gradient, the analyte was back-eluted from the cartridge for 3,000 ms with the organic mobile phase (99.9% acetonitrile/methanol [1:1, v:v], 0.09% formic acid, and 0.01% TFA) and flushed into the mass spectrometer at a flow rate of 1.25 mL/min. Afterwards, the cartridge was reequilibrated with the aqueous mobile phase for 500 ms (flow rate 1.5 mL/min). The RapidFire software and a customized control software were obtained from BioCius. QuickQuan 2.3, Xcalibur 2.0.7, and XDK 2.1.0.25 were used to operate the TSQ Vantage mass spectrometer (ThermoFisher, San Jose, CA) integrated to the RapidFire system. Mass spectral data-processing software QuickCalc 7.1.9 was purchased from ThermoFisher. The Master software for the RIAS was programmed in-house using LabVIEW (version 8.6.1; National Instruments, Austin, TX). Data analysis was performed in AssayExplorer 3.2 (Symyx, Sunnyvale, CA), and correlation plots were visualized in Spotfire version 2.2.0 (TIBCO, Palo Alto, CA).
Apparent permeability coefficients in the apical to basal direction (Papp,AB) and in the basal to apical direction (Papp,BA) and efflux ratios were calculated as follows:
Efflux ratio=Papp,BA/Papp,AB
where Q is the amount of compound recovered in the receiver compartment after the incubation time t, C0 the initial compound concentration given to the donor compartment, and s the surface area of the Transwell inserts. […] In addition, transepithelial electrical resistance (TEER) values are measured for each plate before the permeability assay, and total recovery in donor and receiver compartments was determined for each compound.

[7] = tested on: Human STING (hSTING, UNIPROT entry Q86WV6, residues 155-341); experiment: Interaction with hSTING by differential scanning fluorimetry (DSF); format: binding; conditions: 100 μM test compound, 5 μM hSTING protein
Method: In DSF, the temperature at which a protein unfolds, also called the melting temperature Tm, is measured by changes in fluorescence of a dye that binds to the hydrophobic parts of the protein. Tm shifts upon binding of a small molecule are correlated with the binding affinity of this small molecule. As target protein, Human STING (hSTING, UNIPROT entry Q86WV6, residues 155-341, MW: 21578.4 Da; protein stock solution: c=1302 μM stock solution in 20 mM Tris, 100 mM NaCl, 2 mM TCEP pH 8.8) was used, as assay buffer 20 mM Tris, 150 mM NaCl pH7.5 was added where and as necessary.
Final concentrations of components in assay: 100 μM test compounds, 5 μM target protein, “5×” SYPR Orange (from stock solution SYPRO orange solution in DMSO (invitrogen cat.-no. 56650-500ul), concentration “5000×”)
Assay Procedure: • 1) Dilutions of compound stock solutions (10 mM in DMSO) were prepared in assay buffer (20 mM Tris, 150 mM NaCl; pH7.5) • 2) 5 μl fluorescent dye stock solution (5000×SYPRO Orange in DMSO) was mixed with 19 μl target protein (1302 μM) and 976 μl assay buffer. • 3) 2 μl of this protein-dye-mixture (25×SYPRO Orange and 25 μM Protein) was added to 8 μl diluted compound solution as prepared in step 1. Final volume was 10 μl. • 4) With every 20 compounds, two negative controls were measured. • 5) The plates were prepared for duplicate measurement and centrifuged for 2 min at 1000 g. • 6) For the measurement, a CFX384 Real-Time System (Bio-Rad) was used. The run consisted of 140 cycles with 0.5° C./cycle (temperature ramp 15 s/cycle, 25° C. to 95° C.).
Data analysis: The melting curves were processed in Bio-Rad CFX Manager. Peak type was set to “negative”. Two replicates of TM (melting temperature) measurements were averaged and the standard deviation was calculated.

T5 sequence (Q86WV6 whole entry, stated change not applied): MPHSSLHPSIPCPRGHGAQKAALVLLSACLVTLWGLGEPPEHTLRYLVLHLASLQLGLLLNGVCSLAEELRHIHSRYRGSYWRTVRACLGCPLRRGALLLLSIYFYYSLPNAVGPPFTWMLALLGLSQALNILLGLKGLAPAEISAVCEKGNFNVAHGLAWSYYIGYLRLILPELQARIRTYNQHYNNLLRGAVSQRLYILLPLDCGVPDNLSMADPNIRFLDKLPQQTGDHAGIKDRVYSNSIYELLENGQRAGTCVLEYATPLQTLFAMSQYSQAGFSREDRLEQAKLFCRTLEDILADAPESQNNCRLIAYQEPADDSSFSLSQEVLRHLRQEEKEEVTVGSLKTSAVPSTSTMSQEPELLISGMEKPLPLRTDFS
T2 sequence (Q86WV6 whole entry G230A/H232R/R293Q): as the sequence (Q86WV6 whole entry, stated change not applied) above, with G230A, H232R, R293Q counted along it
T1 sequence (Q86WV6 whole entry R71H/G230A/H232R/R293Q): as the sequence (Q86WV6 whole entry, stated change not applied) above, with R71H, G230A, H232R, R293Q counted along it
T3 sequence (Q86WV6 whole entry H232R/R293Q): as the sequence (Q86WV6 whole entry, stated change not applied) above, with H232R, R293Q counted along it
T4 sequence (Q86WV6 whole entry H232R): as the sequence (Q86WV6 whole entry, stated change not applied) above, with H232R counted along it

SMILES: Cc1c(Cl)c(F)cc2c(-c3cccc4nn(C)cc34)nn(-c3ccc(N4C[C@@H]5[C@H](C4)[C@H]5C(=O)O)nc3)c12 [compound 13, (1R,5S,6r)-3-(5-(6-chloro-5-fluoro-2′,7-dimethyl-1H,2′H-[3,4′-biindazol]-1-yl)pyridin-2-yl)-3-azabicyclo[3.1.0] hexane-6-carboxylic acid]
EC50 [1]: 300 nM
Papp A→B at 10 μM [6]: 2 ×10⁻⁶ cm/s
efflux ratio at 10 μM [6]: 3.6

SMILES: Cc1cc(F)cc2c(-c3cccc4nn(C)cc34)nn(-c3ccc(N4CCN(C=O)CC4)nc3)c12 [Example #3, 4-(5-(5-Fluoro-2′,7-dimethyl-1H,2′H-[3,4′-biindazol]-1-yl)pyridin-2-yl)piperazine-1-carbaldehyde]
EC50 [1]: 1900 nM
EC50 [2]: 1000 nM
EC50 [3]: 1800 nM
EC50 [4]: 600 nM
EC50 [5]: 600 nM
Papp A→B at 10 μM [6]: 15 ×10⁻⁶ cm/s
efflux ratio at 10 μM [6]: 1.7
TM (changes in TM, thermal shift) [7]: 21 K

SMILES: Cc1c(F)ccc2c(-c3cccc4nn(C)cc34)nn(-c3ccc(N4C[C@@H]5[C@H](C4)[C@H]5C(=O)O)nc3)c12 [compound 6, (1R,5S,6r)-3-(5-(6-fluoro-2′,7-dimethyl-1H,2′H-[3,4′-biindazol]-1-yl)pyridin-2-yl)-3-azabicyclo[3.1.0]hexane-6-carboxylic acid]
EC50 [1]: 300 nM
EC50 [4]: 200 nM
Papp A→B at 10 μM [6]: 9 ×10⁻⁶ cm/s
efflux ratio at 10 μM [6]: 2.4

SMILES: Cc1cc(Cl)cc2c(-c3cccc4nn(C)cc34)nn(-c3ccc(N4C[C@@H]5[C@H](C4)[C@H]5C(=O)O)nc3)c12 [compound 11, (1R,5S,6r)-3-(5-(5-chloro-2′,7-dimethyl-1H,2′H-[3,4′-biindazol]-1-yl)pyridin-2-yl)-3-azabicyclo[3.1.0]hexane-6-carboxylic acid]
EC50 [1]: 3900 nM
EC50 [2]: 2400 nM
EC50 [3]: 3000 nM
EC50 [4]: 800 nM
EC50 [5]: 900 nM
TM (changes in TM, thermal shift) [7]: 24 K

SMILES: Cc1cc(F)cc2c(-c3cccc4nn(C)cc34)nn(-c3ccc(N4C[C@@H]5[C@H](C4)[C@H]5C(=O)O)nc3)c12 [compound 5, (1R,5S,6r)-3-(5-(5-fluoro-2′,7-dimethyl-1H,2′H-[3,4′-biindazol]-1-yl)pyridin-2-yl)-3-azabicyclo[3.1.0]hexane-6-carboxylic acid]
EC50 [1]: 600 nM
EC50 [2]: 400 nM
EC50 [3]: 600 nM
EC50 [4]: 600 nM
EC50 [5]: 300 nM
Papp A→B at 10 μM [6]: 8 ×10⁻⁶ cm/s
efflux ratio at 10 μM [6]: 2.6
TM (changes in TM, thermal shift) [7]: 26 K

SMILES: Cc1cc(F)cc2c(-c3cccc4nn(C)cc34)nn(-c3ccc(N4CCS(=O)(=O)CC4)nc3)c12 [Example #1, 4-(5-(5-fluoro-2′,7-dimethyl-1H,2′H-[3,4′-biindazol]-1-yl)pyridin-2-yl)thiomorpholine 1,1-dioxide]
EC50 [1]: 2300 nM
EC50 [2]: 1800 nM
EC50 [3]: 2200 nM
EC50 [4]: 800 nM
EC50 [5]: 700 nM
TM (changes in TM, thermal shift) [7]: 21 K

Further lines, with some results ahead:

EC50 [1]: 700 nM
EC50 [2]: 300 nM
EC50 [3]: 500 nM
EC50 [4]: 300 nM
EC50 [5]: 300 nM
Papp A→B at 10 μM [6]: 19 ×10⁻⁶ cm/s
efflux ratio at 10 μM [6]: 1
SMILES: Cc1cc(F)cc2c(-c3cccc4nn(C)cc34)nn(-c3ccc(N4CCC(C(=O)O)CC4)nc3)c12 [compound 4, 1-(5-(5-Fluoro-2′,7-dimethyl-1H,2′H-[3,4′-biindazol]-1-yl)pyridin-2-yl)piperidine-4-carboxylic acid]
TM (changes in TM, thermal shift) [7]: 24 K

EC50 [1]: 900 nM
EC50 [2]: 600 nM
EC50 [3]: 700 nM
EC50 [4]: 300 nM
EC50 [5]: 300 nM
SMILES: Cc1c(Cl)ccc2c(-c3cccc4nn(C)cc34)nn(-c3ccc(N4CCC(S(C)(=O)=O)CC4)nc3)c12 [compound 2, 6-chloro-2′,7-dimethyl-1-(6-(4-(methylsulfonyl)piperidin-1-yl)pyridin-3-yl)-1H,2′H-3,4′-biindazole]
TM (changes in TM, thermal shift) [7]: 22 K

EC50 [1]: 6600 nM
EC50 [2]: 5600 nM
EC50 [3]: 7800 nM
EC50 [4]: 2200 nM
EC50 [5]: 2200 nM
SMILES: Cc1cc(Cl)cc2c(-c3cccc4nn(C)cc34)nn(-c3ccc(N4CCC(C(=O)O)CC4)nc3)c12 [compound 10, 1-(5-(5-chloro-2′,7-dimethyl-1H,2′H-[3,4′-biindazol]-1-yl)pyridin-2-yl)piperidine-4-carboxylic acid]
TM (changes in TM, thermal shift) [7]: 19 K

EC50 [1]: 800 nM
EC50 [4]: 200 nM
Papp A→B at 10 μM [6]: 13 ×10⁻⁶ cm/s
efflux ratio at 10 μM [6]: 1.8
SMILES: Cc1c(F)ccc2c(-c3cccc4nn(C)cc34)nn(-c3ccc(N4CCC(C(=O)O)CC4)nc3)c12 [compound 7, 1-(5-(6-fluoro-2′,7-dimethyl-1H,2′H-[3,4′-biindazol]-1-yl)pyridin-2-yl)piperidine-4-carboxylic acid]

EC50 [1]: 700 nM
Papp A→B at 10 μM [6]: 10 ×10⁻⁶ cm/s
efflux ratio at 10 μM [6]: 1.5
SMILES: Cc1c(Cl)ccc2c(-c3cccc4nn(C)cc34)nn(-c3ccc(N4CCC(C(=O)O)CC4)nc3)c12 [compound 9, 1-(5-(6-chloro-2′,7-dimethyl-1H,2′H-[3,4′-biindazol]-1-yl)pyridin-2-yl)piperidine-4-carboxylic acid]

EC50 [1]: 700 nM
EC50 [2]: 600 nM
EC50 [3]: 600 nM
EC50 [4]: 300 nM
EC50 [5]: 300 nM
Papp A→B at 10 μM [6]: 4 ×10⁻⁶ cm/s
efflux ratio at 10 μM [6]: 6.4
SMILES: Cc1c(Cl)c(F)cc2c(-c3cccc4nn(C)cc34)nn(-c3ccc(N4CCC(C(=O)O)CC4)nc3)c12 [compound 12, 1-(5-(6-chloro-5-fluoro-2′,7-dimethyl-1H,2′H-[3,4′-biindazol]-1-yl)pyridin-2-yl) piperidine-4-carboxylic acid]
